Reference: PubChem BioAssay AID330 (DTP/NCI, 2004)
Several values for one entry are separate records, joined by “and”; a condition that tells them apart may be missing. Equal values may be shown once. Inconclusive results and toxic doses are left out. Rule for the calls: active = survival T/C of 150% or more; inactive = T/C below 125% in these data.

Test system: P388 leukemia ip, CD2F1 mice, survival T/C
Experiment: NCI In Vivo Anticancer Drug Screen. Data for tumor model P388 Leukemia (intraperitoneal) in CD2F1 (CDF1) mice
Conditions: endpoint: median survival time, higher = longer survival
How it was run: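 Mice carrying the transplanted tumor received test compound or vehicle. Survival was recorded in each group, and the value is the treated-group measurement divided by that of the vehicle-treated control group.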

[1] = dose: 50.0 mg/kg/injection, schedule: Q01DX009 (ip), vehicle: saline with Tween-80
[2] = dose: 60.0 mg/kg/injection, schedule: Q01DX005 (ip), vehicle: saline with Tween-80
[3] = dose: 120.0 mg/kg/injection, schedule: Q01DX005 (ip), vehicle: saline with Tween-80
[4] = dose: 240.0 mg/kg/injection, schedule: Q01DX005 (ip), vehicle: saline with Tween-80
[5] = dose: 50.0 mg/kg/injection, schedule: Q01DX005 (ip), vehicle: saline with Tween-80
[6] = dose: 100.0 mg/kg/injection, schedule: Q01DX005 (ip), vehicle: saline with Tween-80
[7] = dose: 200.0 mg/kg/injection, schedule: Q01DX005 (ip), vehicle: saline with Tween-80
[8] = dose: 12.5 mg/kg/injection, schedule: Q01DX005 (ip), vehicle: saline with Tween-80

Measured: T/C

O=C1CCCC/C1=C\N(c1ccccc1)c1ccccc1
inactive: [1] 106 % of control | dose: 100.0 mg/kg/injection, schedule: Q01DX009 (ip), vehicle: saline with Tween-80 98 % of control | dose: 200.0 mg/kg/injection, schedule: Q01DX009 (ip), vehicle: saline with Tween-80 95 % of control

c1ccc(-c2cc(Nc3ccc4c(c3)OCO4)c3cc(C4CCCCC4)ccc3n2)cc1
inactive: [2] 103 % of control | [3] 93 % of control | [4] 89 % of control

O=c1[nH]c(Sc2ccccn2)ccc1[N+](=O)[O-]
inactive: dose: 6.25 mg/kg/injection, schedule: Q01DX009 (ip), vehicle: Klucel (hydroxypropylcellulose) (HPC) 97 % of control | dose: 12.5 mg/kg/injection, schedule: Q01DX009 (ip), vehicle: Klucel (hydroxypropylcellulose) (HPC) 91 % of control | dose: 25.0 mg/kg/injection, schedule: Q01DX009 (ip), vehicle: Klucel (hydroxypropylcellulose) (HPC) 98 % of control and 92 % of control

CCOC(=O)/C=C(\C)NC1CC(=O)NC1=O (stereo not drawn)
inactive: dose: 50.0 mg/kg/injection, schedule: Q01DX009 (ip), vehicle: distilled water + alcohol 104 % of control | dose: 100.0 mg/kg/injection, schedule: Q01DX009 (ip), vehicle: distilled water + alcohol 108 % of control

COC(=O)c1cc(=O)n(-c2cccc(OC)c2)c(SC)n1
inactive: dose: 25.0 mg/kg/injection, schedule: Q04DX002 (ip), vehicle: Klucel (hydroxypropylcellulose) (HPC) 107 % of control | dose: 50.0 mg/kg/injection, schedule: Q04DX002 (ip), vehicle: Klucel (hydroxypropylcellulose) (HPC) 103 % of control | dose: 100.0 mg/kg/injection, schedule: Q04DX002 (ip), vehicle: Klucel (hydroxypropylcellulose) (HPC) 104 % of control and 105 % of control

CCCCCCCCCCCCCCCc1c(NC(C)(CC(C)(C)O)[P+](=O)O)c(=O)n(C)n1C (stereo not drawn)
inactive: dose: 50.0 mg/kg/injection, schedule: Q01DX009 (ip), vehicle: saline 96 % of control | dose: 100.0 mg/kg/injection, schedule: Q01DX009 (ip), vehicle: saline 88 % of control

O=C1C=C(c2ccccc2)S(=O)(=O)c2c(O)cccc21
inactive: [5] 121 % of control | [6] 119 % of control | [7] 118 % of control

COc1cccc(/C(C#N)=N/NC(=O)c2nc[nH]c2C)c1
inactive: dose: 1.56 mg/kg/injection, schedule: Q01DX005 (ip), vehicle: saline with Tween-80 93 % of control | dose: 3.12 mg/kg/injection, schedule: Q01DX005 (ip), vehicle: saline with Tween-80 94 % of control | dose: 6.25 mg/kg/injection, schedule: Q01DX005 (ip), vehicle: saline with Tween-80 95 % of control | [8] 93 % of control | [5] 86 % of control | [6] 87 % of control | [7] 100 % of control

CCCOc1ccc(-c2nc(-c3ccc(N=Cc4ccc(N(CCOS(C)(=O)=O)CCOS(C)(=O)=O)cc4C)cc3)cs2)cc1
active: dose: 3.12 mg/kg/injection, schedule: Q01DX009 (ip), vehicle: saline with Tween-80 160 % of control | dose: 6.25 mg/kg/injection, schedule: Q01DX009 (ip), vehicle: saline with Tween-80 180 % of control | dose: 12.5 mg/kg/injection, schedule: Q01DX009 (ip), vehicle: saline with Tween-80 156 % of control and 166 % of control and 197 % of control | dose: 25.0 mg/kg/injection, schedule: Q01DX009 (ip), vehicle: saline with Tween-80 164 % of control
inactive: [1] 110 % of control and 118 % of control

CSC(=N)c1cccc(OCCOc2ccccc2)c1
inactive: dose: 15.0 mg/kg/injection, schedule: Q01DX005 (ip), vehicle: Klucel (hydroxypropylcellulose) (HPC) 96 % of control | dose: 30.0 mg/kg/injection, schedule: Q01DX005 (ip), vehicle: Klucel (hydroxypropylcellulose) (HPC) 98 % of control | dose: 60.0 mg/kg/injection, schedule: Q01DX005 (ip), vehicle: Klucel (hydroxypropylcellulose) (HPC) 91 % of control | [2] 93 % of control | dose: 120.0 mg/kg/injection, schedule: Q01DX005 (ip), vehicle: Klucel (hydroxypropylcellulose) (HPC) 86 % of control | [3] 101 % of control | dose: 240.0 mg/kg/injection, schedule: Q01DX005 (ip), vehicle: Klucel (hydroxypropylcellulose) (HPC) 91 % of control | [4] 99 % of control

CC1=C(OS(C)(=O)=O)CCC1=O
inactive: [8] 104 % of control | dose: 25.0 mg/kg/injection, schedule: Q01DX005 (ip), vehicle: saline with Tween-80 103 % of control | [5] 103 % of control and 107 % of control | [6] 106 % of control
